Assay results as given in PMC5350466 (mBio, 2017).
Values after ≈ are worked out from the molar mass of the structure shown.

Legend:
[1] = molecular target: Burkholderia cenocepacia BcnA (BCAL3311) (Burkholderia cenocepacia); test: other; competition with Nile red, PBS
[2] = system: BcnB; test: In vitro binding of Nile red to BcnB; parameters: species or system Burkholderia cenocepacia; settings: 1.5 µM BcnB vs 1.5 µM BcnA
Protocol: In vitro binding assays were performed as previously described ([23]), with a few modifications. Purified BCNs were prepared in phosphate-buffered saline (PBS, pH 7.4). Phospholipids and Nile red were prepared in DMSO. […] All spectra were corrected for background fluorescence determined from probe-into-buffer titrations. Fluorescence was measured with a Cary Eclipse fluorescence spectrophotometer (Varian) set at an excitation wavelength (λex) specific for each probe, as follows: Nile red, 550 nm; BODIPY phospholipids, 500 nm for fatty acyl BODIPY-labeled phosphocholine and 505 nm for head group BODIPY-labeled phosphoethanolamine. The emission spectrum for each probe was collected across the following wavelengths (λem): Nile red, 590 to 750 nm; BODIPY phospholipids, 510 to 665 nm. The background-corrected binding fluorescence with each probe was fitted to a one-site binding model as previously described for human AGP ([23]). The equilibrium binding affinity constant for the probe-BCN complex (Kd), the probe concentration needed to achieve half-maximum binding at equilibrium, was determined by nonlinear least-squares regression analysis of the binding isotherms with GraphPad Prism v 5.0 software (GraphPad Software, Inc.).

[3] = system: ΔbcnA pbcnA; test: MIC by E test; format: cell-based, Burkholderia cenocepacia; settings: 24 h
[4] = system: ΔbcnA pbcnA1 (Pa); test: MIC by E test; format: cell-based, Burkholderia cenocepacia; settings: 24 h
[5] = system: ΔbcnA pbcnA2 (Pa); test: MIC by E test; format: cell-based, Burkholderia cenocepacia; settings: 24 h
[6] = system: ΔbcnA pbcnA3 (Pa); test: MIC by E test; format: cell-based, Burkholderia cenocepacia; settings: 24 h
[7] = system: ΔbcnA pbcnA (MTb); format: cell-based, Burkholderia cenocepacia
[8] = molecular target: Burkholderia cenocepacia BcnB (BCAL3310) (Burkholderia cenocepacia); test: SEC-MALS; proteins diluted to 1 mg/ml in 20 mM Tris (pH 7.5)-100 mM NaCl

polymyxin B
Ki [1]: 670 µM

PmB nonapeptide
Ki [1]: 5080 µM

CCN(CC)c1ccc2nc3c4ccccc4c(=O)cc-3oc2c1 [Nile red]
affinity of BcnB binding to Nile red, fold lower than that of BcnA [2]: ~ 20 fold

CO[C@H]1/C=C/O[C@@]2(C)Oc3c(C)c(O)c4c(O)c(c(/C=N/N5CCN(C)CC5)c(O)c4c3C2=O)NC(=O)/C(C)=C\C=C\[C@H](C)[C@H](O)[C@@H](C)[C@@H](O)[C@@H](C)[C@H](OC(C)=O)[C@@H]1C [Rifampicin, rifampin]
MIC by Etest, ΔbcnA pbcnA [3]: ≥ 64 mg/L
MIC by Etest, ΔbcnA pbcnA1 (Pa) [4]: ≥ 64 mg/L
MIC by Etest, ΔbcnA pbcnA2 (Pa) [5]: 32 mg/L (≈ 38.9 µM)
MIC by Etest, ΔbcnA pbcnA3 (Pa) [6]: ≥ 64 mg/L
MIC by Etest, ΔbcnA pbcnA (MTb) [7]: ≥ 64 mg/L

CC(C)(O/N=C(\C(=O)N[C@@H]1C(=O)N2C(C(=O)[O-])=C(C[n+]3ccccc3)CS[C@H]12)c1csc(N)n1)C(=O)O [Ceftazidime, ceftazidime]
MIC by Etest, ΔbcnA pbcnA [3]: 8 mg/L (≈ 14.6 µM)
MIC by Etest, ΔbcnA pbcnA1 (Pa) [4]: 8 mg/L (≈ 14.6 µM)
MIC by Etest, ΔbcnA pbcnA2 (Pa) [5]: 8 mg/L (≈ 14.6 µM)
MIC by Etest, ΔbcnA pbcnA3 (Pa) [6]: 8 mg/L (≈ 14.6 µM)
MIC by Etest, ΔbcnA pbcnA (MTb) [7]: 8 mg/L (≈ 14.6 µM)

Burkholderia cenocepacia BcnB (BCAL3310) (natural protein)
stoichiometry N [8]: 2

O=C(O)c1cn(C2CC2)c2cc(N3CCNCC3)c(F)cc2c1=O [Cipro, ciprofloxacin]
MIC by Etest, ΔbcnA pbcnA [3]: 4 mg/L (≈ 12.1 µM)
MIC by Etest, ΔbcnA pbcnA1 (Pa) [4]: 4 mg/L (≈ 12.1 µM)
MIC by Etest, ΔbcnA pbcnA2 (Pa) [5]: 4 mg/L (≈ 12.1 µM)
MIC by Etest, ΔbcnA pbcnA3 (Pa) [6]: 4 mg/L (≈ 12.1 µM)
MIC by Etest, ΔbcnA pbcnA (MTb) [7]: 4 mg/L (≈ 12.1 µM)
